# Source: patent US20170056423A1 (Gilead Sciences, Inc., priority 2012, published 2017)
# Read-outs that look alike come from different tables or passages of the source.
# Columns and labels:
# [1] = biological target: T1, BCRP (Homo sapiens, UniProt Q9UNQ0); assay: BCRP substrate assay, bidirectional permeability in MDCKII-BCRP cells; assay type: in vitro ADME; settings: 10 μM, MDCKII-BCRP vs MDCKII-WT, ± Ko134
# T1 construct: expressed in transfected cells; host or cells: MDCKII (Madin-Darby canine kidney) cells, MDCKII-ABCG2 / MDCKII-BCRP
# Procedure: (§1) Pgp and BCRP substrate assays in transfected MDCKII cells: MDCKII cells were grown to confluence over 4-6 days on 24-well PET transwell plates (BD Biosciences). The same buffers were used in the donor and receiver wells as described above for caco-2 studies. Experiments were conducted as described above for caco-2 transepithelial transport studies and samples analyzed by LC/MS/MS. Similar quality control and acceptance criteria were used as those described above for caco-2 studies. TEER values and the permeability of lucifer yellow, atenolol, and propranolol were determined to meet acceptance criteria for each batch of assay plates. Efflux ratios were determined to be at least 3-fold higher in transfected versus nontransfected monolayers for the model Pgp substrate vinblastine and BCRP substrate prazosin.
# (§2) Data analysis: The 50% inhibition constants (IC50) values for transporters in the fluorescent accumulation studies done in MDCKII cells, defined as the test article concentration needed to inhibit the maximal transporter specific transport by 50%, were calculated using nonlinear curve fitting of inhibition versus concentration to a sigmoidal curve with a variable Hill coefficient using GraphPad Prism 5 (GraphPad Software Inc., San Diego, Calif.). […]
# [2] = biological target: CYP2C9 (Homo sapiens, UniProt P11712); assay: CYP2C9 inhibition; assay type: in vitro ADME
# [3] = biological target: T2, Pgp (Homo sapiens, UniProt P08183); assay: Pgp inhibition assay, calcein AM accumulation in MDCKII-MDR1 cells; assay type: cell-based
# T2 construct: expressed in transfected cells; host or cells: MDCKII (Madin-Darby canine kidney) cells, MDCKII-MDR1
# Procedure: (§3) Pgp and BCRP inhibition assays in transfected Madin-Darby canine kidney (MDCKII) cells: Inhibition of Pgp-mediated transport was studied using the Pgp substrate calcein AM and MDCKII cells transfected with the human MDR1 (ABCB1) gene (encoding Pgp). Similarly, inhibition of BCRP-mediated transport was studied using the BCRP substrate Hoechst 33342 and MDCKII cells transfected with the human ABCG2 gene (encoding BCRP). Briefly, MDCKII cells were seeded in 96-well black cell culture plates with clear bottoms at a density of 5×10^4 cells/well and grown to confluence overnight. Test compounds were diluted in cell culture medium containing 10 μM Hoechst 33342 and incubated for 3 hours with MDCKII-BCRP and nontransfected cells. Following removal of media containing Hoechst 33342 and test compound, cells were washed twice with warm medium and lysed at room temperature for 5-10 minutes in a buffer containing 20 mM Tris-HCl pH 9.0 and 0.4% Triton X-100. Wells were analyzed for Hoechst 33342 fluorescence at an excitation of 353 nm and an emission of 460 nm. […]
# [4] = biological target: T3, Pgp (multidrug resistance protein 1; MDR1) (Homo sapiens, UniProt P08183); assay: Pgp substrate assay, bidirectional permeability in MDCKII-MDR1 cells; assay type: in vitro ADME; settings: 10 μM, MDCKII-MDR1 vs MDCKII-WT, ± CSA
# T3 construct: expressed in transfected cells; host or cells: MDCKII (Madin-Darby canine kidney) cells, MDCKII-MDR1
# Procedure: as §1, §2
# [5] = biological target: CYP1A2 (Homo sapiens, UniProt P05177); assay: CYP1A2 inhibition; assay type: in vitro ADME
# [6] = biological target: CYP2D6 (Homo sapiens, UniProt P10635); assay: CYP2D6 inhibition; assay type: in vitro ADME
# [7] = biological target: uridine glucuronosyltransferase 1A1 (Homo sapiens, UniProt P22309); assay: UGT1A1 inhibition by cobicistat; assay type: in vitro ADME
# [8] = tested on: caco-2 cell monolayers; assay: bidirectional permeability of HIV protease inhibitors and GS-7340 through caco-2 monolayers; assay type: in vitro ADME; settings: COBI 90 μM, GS-7340 10 μM, over 2 hours
# [9] = biological target: CYP2C19 (Homo sapiens, UniProt P33261); assay: CYP2C19 inhibition; assay type: in vitro ADME
# [10] = tested on: cytochrome P450, UGT1A1, or P-glycoprotein; assay: xenobiotic receptor transactivation and human hepatocyte induction studies; assay type: in vitro ADME; settings: at up to 30 μM
# [11] = biological target: CYP2C8 (Homo sapiens, UniProt P10632); assay: CYP2C8 inhibition; assay type: in vitro ADME
# [12] = biological target: T1, BCRP; assay: BCRP inhibition assay, Hoechst 33342 accumulation in MDCKII-ABCG2 cells; assay type: cell-based; settings: Hoechst 33342, MDCKII-ABCG2 cells
# Procedure: as §3
# [13] = biological target: CYP2B6 (Homo sapiens, UniProt P20813); assay: CYP2B6 inhibition; assay type: in vitro ADME; settings: similar potency to ritonavir
# [14] = tested on: transporters including P-glycoprotein, MRP1, and MRP2; assay: permeability assays for transporter interaction; assay type: in vitro ADME
# [15] = 25 mg level
# Procedure: In order to provide a robust assessment of pharmacokinetic comparisons between test versus reference treatments, a balanced Williams 4×4 design was used in each cohort.
# The evaluation used two cohorts of twenty patients. In Cohort 1, the following study treatments were administered.
# [16] = biological target: human pregnane X receptor (Homo sapiens, UniProt O75469); assay: pregnane X receptor activation
# [17] = Study 1, while receiving GS-7340 SA (25 mg)
# [18] = tested on: HIV-1; settings: against HIV-1 in T cells, activated PBMCs, and macrophages
# [19] = biological target: UGT1A1 (Homo sapiens, UniProt P22309); settings: at concentrations up to 50 μM
# [20] = biological target: aryl hydrocarbon receptor (Homo sapiens, UniProt P35869); assay: aryl hydrocarbon receptor activation
# [21] = tested on: cytochrome P450 enzymes (all isoforms tested); assay: in vitro; settings: human
# [22] = tested on: UDP-glucuronosyltransferases; assay: UDP-glucuronosyltransferase interaction; assay type: in vitro ADME, human; settings: in vitro or in vivo in humans
# [23] = in vivo
# [24] = tested on: cytochrome P450 enzymes; settings: in vitro or in vivo in humans
# T1 sequence (Q9UNQ0 whole entry): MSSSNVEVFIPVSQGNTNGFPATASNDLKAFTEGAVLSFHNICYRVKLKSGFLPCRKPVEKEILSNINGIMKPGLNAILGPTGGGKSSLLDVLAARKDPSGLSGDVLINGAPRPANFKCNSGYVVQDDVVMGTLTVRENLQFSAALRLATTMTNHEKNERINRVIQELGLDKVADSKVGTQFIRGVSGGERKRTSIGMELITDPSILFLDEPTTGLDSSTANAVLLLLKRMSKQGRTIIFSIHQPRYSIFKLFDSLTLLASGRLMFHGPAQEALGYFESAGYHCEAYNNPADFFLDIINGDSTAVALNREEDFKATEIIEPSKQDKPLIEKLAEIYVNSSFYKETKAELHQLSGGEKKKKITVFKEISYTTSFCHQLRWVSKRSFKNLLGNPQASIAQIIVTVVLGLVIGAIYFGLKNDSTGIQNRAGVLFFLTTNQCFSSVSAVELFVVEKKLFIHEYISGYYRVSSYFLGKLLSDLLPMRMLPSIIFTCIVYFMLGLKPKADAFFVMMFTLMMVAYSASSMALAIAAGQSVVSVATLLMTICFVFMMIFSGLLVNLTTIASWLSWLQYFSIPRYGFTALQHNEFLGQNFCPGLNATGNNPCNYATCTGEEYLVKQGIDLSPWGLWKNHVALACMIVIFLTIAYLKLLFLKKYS
# Sequence of CYP2C8 (P10632 whole entry): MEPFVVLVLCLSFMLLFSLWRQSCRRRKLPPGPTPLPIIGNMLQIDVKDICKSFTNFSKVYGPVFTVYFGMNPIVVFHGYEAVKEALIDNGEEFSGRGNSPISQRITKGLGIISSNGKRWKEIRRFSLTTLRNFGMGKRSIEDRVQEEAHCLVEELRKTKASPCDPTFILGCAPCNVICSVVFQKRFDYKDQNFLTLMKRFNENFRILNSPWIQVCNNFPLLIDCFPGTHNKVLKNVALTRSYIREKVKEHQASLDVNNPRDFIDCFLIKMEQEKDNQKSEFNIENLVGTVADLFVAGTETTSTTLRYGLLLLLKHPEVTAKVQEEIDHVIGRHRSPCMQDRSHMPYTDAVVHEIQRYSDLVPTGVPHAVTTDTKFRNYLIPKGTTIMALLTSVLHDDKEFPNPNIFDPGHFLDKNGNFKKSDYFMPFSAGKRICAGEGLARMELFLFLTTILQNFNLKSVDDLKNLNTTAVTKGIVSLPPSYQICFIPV
# Sequence of CYP1A2 (P05177 whole entry): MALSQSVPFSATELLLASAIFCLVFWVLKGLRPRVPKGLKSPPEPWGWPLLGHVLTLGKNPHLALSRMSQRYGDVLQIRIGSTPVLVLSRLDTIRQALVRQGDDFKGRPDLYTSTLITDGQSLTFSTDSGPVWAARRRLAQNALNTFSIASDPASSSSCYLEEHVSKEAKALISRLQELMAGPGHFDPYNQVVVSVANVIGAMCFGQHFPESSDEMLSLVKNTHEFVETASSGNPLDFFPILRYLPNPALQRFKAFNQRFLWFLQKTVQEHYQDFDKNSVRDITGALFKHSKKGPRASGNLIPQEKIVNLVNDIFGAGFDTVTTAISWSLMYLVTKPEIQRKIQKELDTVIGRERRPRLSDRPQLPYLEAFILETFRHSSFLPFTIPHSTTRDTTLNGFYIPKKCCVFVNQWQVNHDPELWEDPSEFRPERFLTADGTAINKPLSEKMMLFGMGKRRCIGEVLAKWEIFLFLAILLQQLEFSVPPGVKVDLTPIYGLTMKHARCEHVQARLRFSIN
# Sequence of CYP2D6 (P10635 whole entry): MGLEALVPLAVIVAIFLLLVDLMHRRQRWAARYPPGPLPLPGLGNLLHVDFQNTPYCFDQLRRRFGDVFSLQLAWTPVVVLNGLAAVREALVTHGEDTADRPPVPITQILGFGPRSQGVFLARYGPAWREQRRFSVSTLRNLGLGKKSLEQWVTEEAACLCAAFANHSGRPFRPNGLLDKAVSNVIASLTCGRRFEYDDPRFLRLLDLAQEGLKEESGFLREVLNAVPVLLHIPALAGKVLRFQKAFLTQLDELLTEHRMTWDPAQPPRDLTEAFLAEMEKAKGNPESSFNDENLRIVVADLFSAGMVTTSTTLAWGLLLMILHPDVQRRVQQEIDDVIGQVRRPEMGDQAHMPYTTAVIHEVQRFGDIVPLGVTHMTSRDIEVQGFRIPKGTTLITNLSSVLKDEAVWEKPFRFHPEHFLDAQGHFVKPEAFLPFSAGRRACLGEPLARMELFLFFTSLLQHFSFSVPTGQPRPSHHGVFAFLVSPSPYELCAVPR
# Sequence of CYP2B6 (P20813 whole entry): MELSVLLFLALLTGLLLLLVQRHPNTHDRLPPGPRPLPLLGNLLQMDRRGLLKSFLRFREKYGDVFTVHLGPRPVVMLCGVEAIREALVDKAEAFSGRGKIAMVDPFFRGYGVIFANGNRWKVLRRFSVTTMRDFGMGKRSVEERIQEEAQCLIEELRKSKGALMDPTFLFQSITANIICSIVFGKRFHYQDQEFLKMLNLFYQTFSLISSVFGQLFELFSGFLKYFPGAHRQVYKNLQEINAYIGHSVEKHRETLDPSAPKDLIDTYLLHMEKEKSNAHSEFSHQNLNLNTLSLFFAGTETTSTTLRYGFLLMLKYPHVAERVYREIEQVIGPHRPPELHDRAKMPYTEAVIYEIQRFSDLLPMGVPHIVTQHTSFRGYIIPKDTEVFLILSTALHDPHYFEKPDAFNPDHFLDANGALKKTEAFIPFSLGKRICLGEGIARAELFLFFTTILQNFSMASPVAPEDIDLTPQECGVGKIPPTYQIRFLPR
# Sequence of UGT1A1 (P22309 26-533): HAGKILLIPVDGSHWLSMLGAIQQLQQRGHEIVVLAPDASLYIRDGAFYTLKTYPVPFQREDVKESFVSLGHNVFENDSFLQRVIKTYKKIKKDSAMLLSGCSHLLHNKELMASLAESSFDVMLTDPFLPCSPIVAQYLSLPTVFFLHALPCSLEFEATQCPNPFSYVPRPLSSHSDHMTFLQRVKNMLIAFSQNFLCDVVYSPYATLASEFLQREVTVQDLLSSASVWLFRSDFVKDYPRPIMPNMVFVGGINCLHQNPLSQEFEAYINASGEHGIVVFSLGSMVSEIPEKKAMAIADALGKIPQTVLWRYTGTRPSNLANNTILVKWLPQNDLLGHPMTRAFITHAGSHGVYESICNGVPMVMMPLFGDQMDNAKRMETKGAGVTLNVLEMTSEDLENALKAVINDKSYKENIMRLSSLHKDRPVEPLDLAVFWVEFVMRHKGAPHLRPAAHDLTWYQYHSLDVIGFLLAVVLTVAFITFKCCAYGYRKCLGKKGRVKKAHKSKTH
# Sequence of uridine glucuronosyltransferase 1A1 (P22309 26-533): as above
# Sequence of CYP2C19 (P33261 whole entry): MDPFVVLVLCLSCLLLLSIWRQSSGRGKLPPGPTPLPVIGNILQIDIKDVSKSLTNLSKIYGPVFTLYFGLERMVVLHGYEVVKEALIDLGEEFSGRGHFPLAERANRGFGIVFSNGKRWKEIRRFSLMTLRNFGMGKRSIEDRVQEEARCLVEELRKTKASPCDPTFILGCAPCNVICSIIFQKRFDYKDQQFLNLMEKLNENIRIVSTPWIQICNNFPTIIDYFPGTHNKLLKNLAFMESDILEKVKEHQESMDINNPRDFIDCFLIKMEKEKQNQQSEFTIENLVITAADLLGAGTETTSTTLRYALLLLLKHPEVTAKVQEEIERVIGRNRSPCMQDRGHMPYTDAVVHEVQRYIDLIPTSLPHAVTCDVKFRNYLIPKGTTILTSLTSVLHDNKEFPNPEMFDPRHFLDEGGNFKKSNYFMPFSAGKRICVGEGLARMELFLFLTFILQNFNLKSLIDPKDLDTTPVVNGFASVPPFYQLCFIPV
# Sequence of CYP2C9 (P11712 whole entry): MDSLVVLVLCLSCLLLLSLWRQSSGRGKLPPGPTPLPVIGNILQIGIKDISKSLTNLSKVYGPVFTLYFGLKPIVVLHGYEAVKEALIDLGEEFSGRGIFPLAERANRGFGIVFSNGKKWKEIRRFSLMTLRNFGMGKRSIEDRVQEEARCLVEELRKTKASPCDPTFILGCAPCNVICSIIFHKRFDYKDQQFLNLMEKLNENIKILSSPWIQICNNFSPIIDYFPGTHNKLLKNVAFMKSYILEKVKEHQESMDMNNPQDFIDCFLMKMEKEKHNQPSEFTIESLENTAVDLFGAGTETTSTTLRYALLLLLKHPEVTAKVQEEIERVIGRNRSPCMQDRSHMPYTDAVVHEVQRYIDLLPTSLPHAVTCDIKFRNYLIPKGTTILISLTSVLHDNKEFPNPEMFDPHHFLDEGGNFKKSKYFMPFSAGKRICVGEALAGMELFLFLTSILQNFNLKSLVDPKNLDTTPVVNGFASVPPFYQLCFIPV
# Sequence of human pregnane X receptor (O75469 whole entry): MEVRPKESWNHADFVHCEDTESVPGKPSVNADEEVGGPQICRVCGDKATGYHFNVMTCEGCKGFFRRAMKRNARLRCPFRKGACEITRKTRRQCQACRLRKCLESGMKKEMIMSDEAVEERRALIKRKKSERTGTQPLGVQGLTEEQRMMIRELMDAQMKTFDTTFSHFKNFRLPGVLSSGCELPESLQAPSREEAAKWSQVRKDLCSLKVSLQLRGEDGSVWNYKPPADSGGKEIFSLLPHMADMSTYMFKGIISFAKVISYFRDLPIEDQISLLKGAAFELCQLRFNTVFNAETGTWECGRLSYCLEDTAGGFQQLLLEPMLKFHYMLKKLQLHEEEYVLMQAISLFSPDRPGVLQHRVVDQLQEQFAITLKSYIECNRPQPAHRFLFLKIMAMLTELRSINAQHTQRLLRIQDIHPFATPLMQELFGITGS
compound,measurement,setting,value
"CC(C)c1nc(CN(C)C(=O)N[C@@H](CCN2CCOCC2)C(=O)N[C@H](CC[C@H](Cc2ccccc2)NC(=O)OCc2cncs2)Cc2ccccc2)cs1 [cobicistat, 1,3-thiazol-5-ylmethyl (2R,5R)-(5-{[(2S)-2-[(methyl{[2-(propan-2-yl)-1,3-thiazol-4-yl]methyl}carbamoyl)amino]]-4-(morpholin-4-yl)butanamido}-1,6-diphenylhexan-2-yl)carbamate]",substrate for BCRP,[1],substrate
same,inhibition of CYP2C9,[2],does not appreciably inhibit
same,IC50,[3],36 ± 10 µM
same,substrate for Pgp,[4],substrate
same,inhibition of CYP1A2,[5],does not appreciably inhibit
same,inhibition of CYP2D6,[6],weak inhibitor
same,inhibition of uridine glucuronosyltransferase 1A1,[7],does not appreciably inhibit
same,effect on A-B flux of GS-7340,[8],increased the A-B flux
same,effect on B-A flux of GS-7340,[8],reducing B-A flux
same,inhibition of CYP2C19,[9],does not appreciably inhibit
same,"potential as inducer of cytochrome P450, UGT1A1, or P-glycoprotein",[10],no/weak potential as an inducer
same,inhibition of CYP2C8,[11],does not appreciably inhibit
same,IC50,[12],59 ± 28 µM
same,inhibition of CYP2B6,[13],moderate inhibitor
same,substrate or inhibitor of transporters,[14],not a strong substrate or inhibitor
"CC(C)OC(=O)[C@H](C)N[P@](=O)(CO[C@H](C)Cn1cnc2c(N)ncnc21)Oc1ccccc1 [GS-7340, 9-[(R)-2-[[(S)-[[(S)-1-(isopropoxycarbonyl)ethyl]amino]phenoxyphosphinyl]methoxy]propyl]adenine]","GS-7340 levels, fold higher when administered with cobicistat","[15]; Cohort 1 (Formulation 1, monolayer), FIG. 6",2.2 fold
same,"GS-7340 levels, fold higher when administered with cobicistat","[15]; Cohort 2 (Formulation 2, bilayer), FIG. 7",2.2 fold
same,activation of human pregnane X receptor,[16],not an activator
same,adverse event leading to one discontinuation,[17],rhabdomyolysis (Grade 2)
same,enhanced anti-HIV activity relative to tenofovir,[18],500- to 1000 fold
same,inhibition of UGT1A1 function,[19],does not inhibit
same,activation of aryl hydrocarbon receptor,[20],not an activator
same,IC50,[21],> 7 µM
"C[C@H](Cn1cnc2c(N)ncnc21)OCP(=O)(O)O [tenofovir, 9-R-[(2-phosphonomethoxy)propyl]adenine]","interaction with UDP-glucuronosyltransferases as substrate, inhibitor, or inducer",[22],does not interact significantly
same,"systemic exposure equivalent, fold higher than a dose of tenofovir alone",[23],3 to 4 fold
same,"interaction with human cytochrome P450 enzymes as substrate, inhibitor, or inducer",[24],does not interact significantly
